Reference: patent US10774051B2, “6-membered heterocyclic derivatives and pharmaceutical composition comprising the same” (Shionogi & Co., Ltd., priority 2015, dated 2020)

The compounds below were run against human P2X7 receptor (Homo sapiens, UniProt Q99572, R270H/Y155H) (assay: Evaluation of human P2X7 receptor inhibitory activity (Yo-Pro uptake, BzATP stimulation, FLIPR TETRA)). Conditions: 1321N1 cells stably expressing human P2X7 receptor; BzATP stimulation, Yo-Pro uptake; read-out: IC50 (antagonistic activity for the human P2X7 receptor).
Format: cell-based
How it was run: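 1321N1 cells stably expressing human P2X7 (T606C/G952A SNP variant), in HBSS buffer pH 7.4-7.5 with Yo-Pro, stimulated with BzATP; compound added 8 min after agonist. Fluorescence followed for 20 min on FLIPR; max-minus-min change gave % inhibition, IC50 by logistic fit.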

Row | Compound | IC50 [nM]
1 | COc1cnc(Nc2cc(C)cc3[nH]ccc23)n(Cc2ccc(F)c(Cl)c2)c1=O [Compound I-0989] | 300
2 | COc1cn(CCc2ccccc2)c(Nc2cccc(Cl)c2C)nc1=O [Compound I-0008] | 37
3 | Cc1cc(C)c(Nc2nc(=O)c(C(=O)O)cn2Cc2ccccc2)cc1C [Compound I-0205] | 91
4 | COc1cn(Cc2ccc(F)c(Cl)c2)c(Nc2cc(-c3ncco3)ccc2C)cc1=O [Compound I-0953] | 25
5 | COc1cn(Cc2cc(F)cc(Cl)c2)c(Nc2cccc3sccc23)nc1=O [Compound I-0670] | 20
6 | Cc1cc(Nc2nc(=O)c(Cl)cn2Cc2cc(F)cc(F)c2)c2cc[nH]c2c1 [Compound I-0706] | 15
7 | Cc1nc2cc(C)c(Nc3cc(=O)n(C)c(=O)n3Cc3cc(F)c(F)c(F)c3)cc2s1 [Compound I-0030] | 34
8 | CCc1ccccc1CNc1nc(=O)c(OC)cn1Cc1ccc(F)c(Cl)c1 [Compound I-0453] | 73
9 | COc1cn(Cc2ccc(F)c(Cl)c2)c(Nc2cc(C)c(C)cc2C)nc1=O [Compound I-0358] | 160
10 | Cn1ccc2c(Nc3nc(=O)c(F)cn3Cc3ccc(F)c(Cl)c3)cccc21 [Compound I-1019] | 4
11 | COc1cn(Cc2cc(F)cc(F)c2)c(Nc2cc3ncccc3cc2C)nc1=O [Compound I-0774] | 110
12 | COc1cc(Cn2cc(OC)c(=O)nc2Nc2cccc(Cl)c2C)ccc1F [Compound I-0698] | 100

Same assay, conditions: 1321N1 cells stably expressing human P2X7 receptor; BzATP stimulation, Yo-Pro uptake; read-out: IC50 (antagonistic activity for the human P2X7 receptor), class symbol

Row | Compound | IC50 [nM]
13 | COc1ccc(C)c(Nc2nc(=O)c(OC)cn2Cc2cc(F)cc(F)c2)c1 [Compound I-0408] | 10 to 100
14 | COc1cn(Cc2ccc(F)c(Cl)c2)c(Nc2cccc(C)c2C)nc1=O [Compound I-0325] | < 10
15 | COc1cc(C)c(Nc2nc(=O)c(OC)cn2Cc2cccc(F)c2)cc1OC [Compound I-0274] | < 10
16 | COc1cn(Cc2cccc(F)c2)c(Nc2cc(C)c(F)cc2C)nc1=O [Compound I-0442] | < 10
17 | COc1cn(Cc2ccc(F)c(Cl)c2)c(Nc2cc(N3CCN(C(=O)OC(C)(C)C)CC3)ccc2C)nc1=O [Compound I-0412] | 100 to 500
18 | Cc1c(Cl)cccc1Nc1nc(=O)c(NC(=O)OC(C)(C)C)cn1Cc1ccccc1 [Compound I-0021] | 100 to 500
19 | COc1cn(Cc2ccccc2)c(Nc2cc(C)c(Cl)cc2C)nc1=O [Compound I-0233] | < 10
20 | COc1cc(C)cc(Nc2nc(=O)c(OC)cn2Cc2ccc(F)c(Cl)c2)c1C [Compound I-0477] | < 10
21 | COc1cn(Cc2cc(F)cc(Cl)c2)c(Nc2cccc3[nH]c(C)cc23)nc1=O [Compound I-0579] | 10 to 100
22 | Cc1c(Cl)cccc1Nc1nc(=O)c(F)cn1Cc1ccc(F)c(F)c1 [Compound I-0471] | < 10
23 | COc1cn(Cc2cc(F)cc(F)c2)c(Nc2cccc(Cl)c2C)nc1=O [Compound I-0002] | < 10
24 | COc1cn(Cc2ccccc2)c(Nc2cc(Br)ccc2C)nc1=O [Compound I-0386] | 10 to 100
25 | COc1cn(Cc2ccc(F)c(Cl)c2)c(Nc2cc(C(C)(C)C)ccc2C)nc1=O [Compound I-0501] | 10 to 100
26 | Cc1cccc(C)c1Nc1nc(=O)c(F)cn1Cc1ccccc1 [Compound I-0153] | 10 to 100
27 | CCc1ccc(Cl)cc1Nc1nc(=O)c(OC)cn1Cc1ccc(F)cc1 [Compound I-0388] | 10 to 100
28 | CCc1cc(OC)ccc1Nc1nc(=O)c(OC)cn1Cc1ccc(F)cc1 [Compound I-0262] | < 10
29 | CCOc1cc(C)c(Nc2nc(=O)c(OC)cn2Cc2ccc(F)c(Cl)c2)cc1C [Compound I-0231] | < 10
30 | COc1cc(C)c(Nc2nc(=O)c(OC)cn2Cc2cc(F)cc(Cl)c2)cc1OC [Compound I-0469] | < 10
31 | COc1ccc(Nc2nc(=O)c(OC)cn2Cc2ccc(F)c(Cl)c2)c(C)c1 [Compound I-0227] | 10 to 100
32 | COc1cn(Cc2cc(F)cc(F)c2)c(Nc2cccc3sccc23)nc1=O [Compound I-0441] | < 10
33 | COc1cn(Cc2cc(F)cc(F)c2)c(Nc2cc(OCC(F)(F)F)ccc2C)nc1=O [Compound I-0496] | 10 to 100
34 | COc1cn(Cc2ccc(F)c(F)c2)c(Nc2ccc(OC(F)F)cc2C)nc1=O [Compound I-0516] | 10 to 100
35 | COc1cn(Cc2cc(F)cc(Cl)c2)c(Nc2cc(C)ccc2C)nc1=O [Compound I-0445] | 10 to 100
36 | Cc1c(Cl)cccc1Nc1nc(=O)c(CC(=O)NC2COC2)cn1Cc1ccccc1 [Compound I-0342] | 100 to 500
37 | CCc1c(Nc2nc(=O)c(OC)cn2Cc2cccc(Cl)c2)cccc1OC [Compound I-0214] | < 10
38 | COc1cn(Cc2ccccc2)c(Nc2cccc3c(=O)[nH]ccc23)nc1=O [Compound I-0392] | 10 to 100

Same assay, conditions: antagonistic activity for the human P2X7 receptor; read-out: IC50

Row | Compound | IC50 [nM]
39 | CCc1ccc(OC)cc1Nc1nc(=O)c(OC)cn1Cc1cc(F)cc(Cl)c1 [Compound I-0657] | 10 to 100
40 | COc1cn(Cc2cc(F)c(F)c(F)c2)c(Nc2cc3sc(C)nc3cc2C)nc1=O [Compound I-0697] | < 10
41 | COc1cn(Cc2cc(F)c(F)c(F)c2)c(Nc2cc(-c3cscn3)ccc2C)nc1=O [Compound I-0802] | < 10
42 | Cc1ccc(-c2ncco2)cc1Nc1nc(=O)c(F)cn1Cc1ccc(F)c(F)c1 [Compound I-0850] | < 10
43 | COc1ccc(C)c(Nc2cc(=O)c(OC)cn2Cc2ccc(F)c(Cl)c2)c1 [Compound I-0947] | 10 to 100
44 | COc1cn(Cc2cc(F)cc(F)c2)c(Nc2cc(N3CCCC3)ccc2C)nc1=O [Compound I-0885] | 10 to 100
45 | COc1cn(Cc2ccccc2)c(Nc2cccc(C)c2F)nc1=O [Compound I-0761] | 100 to 500
46 | Cc1cccc(Nc2nc(=O)c(F)cn2Cc2cc(F)c(F)c(F)c2)c1C [Compound I-1189] | < 10
47 | COc1ccc(Nc2nc(=O)c(C)nn2Cc2cc(F)c(F)c(F)c2)c(C)n1 [Compound I-1259] | 10 to 100
48 | CCc1ccc(Br)cc1Nc1nc(=O)c(OC)cn1Cc1ccccc1 [Compound I-0621] | < 10
49 | COc1ccc(Nc2nc(=O)cnn2Cc2cc(F)cc(F)c2)c(C)c1 [Compound I-1271] | < 10
50 | Cc1cc(C)c(Nc2nc(=O)c(Br)cn2Cc2cc(F)cc(F)c2)cc1C [Compound I-1113] | < 10
51 | COc1cn(Cc2ccc(F)c(Cl)c2)c(Nc2ccc3[nH]ccc3c2C)nc1=O [Compound I-0584] | < 10
52 | COc1cn(Cc2cc(F)cc(F)c2)c(Nc2cc(-c3ccccc3)ccc2C)nc1=O [Compound I-0829] | 10 to 100
53 | COc1cn(Cc2ccc(F)c(Cl)c2)c(Nc2ccc3c(c2C)COC3)nc1=O [Compound I-0907] | < 10
54 | Cc1c(Nc2nc(=O)ccn2Cc2ccc(F)c(Cl)c2)ccc2[nH]ccc12 [Compound I-1170] | < 10
55 | COc1cc(C)c(Nc2nc(=O)c(OC)cn2Cc2cc(F)c(F)c(F)c2)cc1OC [Compound I-0623] | < 10
56 | COc1cn(Cc2cc(F)cc(F)c2)c(Nc2cc(-c3ccnn3C)ccc2C)nc1=O [Compound I-0784] | 10 to 100
57 | Cc1cc(OC(F)F)ccc1Nc1nc(=O)c(F)cn1Cc1ccc(F)c(F)c1 [Compound I-1065] | 10 to 100
58 | COc1ccc(Nc2nc(=O)c(F)cn2Cc2ccc(F)c(F)c2)c(C)c1 [Compound I-0841] | < 10
59 | COc1cn(Cc2ccc(F)c(Cl)c2)c(Nc2cc(Cl)ccc2C)nc1=O [Compound I-0594] | 10 to 100

Row | Compound | IC50 [nM]
60 | COc1cn(Cc2cc(F)cc(F)c2)c(Nc2cc(Cl)ccc2C)nc1=O [Compound I-0593] | 10 to 100
61 | CCc1cc(F)c(OC)cc1Nc1nc(=O)c(OC)cn1Cc1ccc(F)c(Cl)c1 [Compound I-0814] | < 10
62 | COc1cc(C)c(Nc2nc(=O)c(OC)cn2Cc2cc(F)cc(Cl)c2)cc1Cl [Compound I-0672] | < 10
63 | COc1ccc(Nc2nc(=O)c(OC)cn2Cc2cc(F)cc(Cl)c2)c(C)c1 [Compound I-0608] | 10 to 100
64 | Cc1nc2cc(C)c(Nc3nc(=O)c(F)cn3Cc3ccc(F)c(F)c3)cc2s1 [Compound I-1010] | < 10
65 | Cc1cc2c(cc1Nc1nc(=O)cnn1Cc1cc(F)c(F)c(F)c1)COC2 [Compound I-1280] | < 10
66 | COc1cn(Cc2cc(F)cc(F)c2)c(Nc2cc(OC(F)F)ccc2C)nc1=O [Compound I-0874] | 10 to 100
67 | CCc1ccccc1Nc1nc(=O)c(F)cn1Cc1cc(F)c(F)c(F)c1 [Compound I-1176] | < 10
68 | CCOc1ccc(Nc2nc(=O)c(OC)cn2Cc2cc(F)cc(F)c2)c(C)c1 [Compound I-0680] | 10 to 100
69 | Cc1ccc(C)c(Nc2nc(=O)c(F)cn2Cc2cc(F)c(F)c(F)c2)c1 [Compound I-1194] | < 10
70 | COc1cc(C)c(Nc2nc(=O)c(C)c(C)n2Cc2cc(F)cc(F)c2)cc1OC [Compound I-1135] | 10 to 100
71 | Cc1cc(OC(F)(F)F)ccc1Nc1nc(=O)c(F)cn1Cc1cc(F)c(F)c(F)c1 [Compound I-1103] | 10 to 100
72 | COc1cn(Cc2cc(F)cc(F)c2)c(Nc2cc(-c3cscn3)ccc2C)nc1=O [Compound I-0753] | < 10
73 | COc1cc(Nc2nc(=O)c(F)cn2Cc2cc(F)c(F)c(F)c2)c(C)nc1OC [Compound I-1235] | < 10
74 | CCOc1cc(Nc2nc(=O)c(F)cn2Cc2cc(F)cc(F)c2)c(C)cc1F [Compound I-1032] | 10 to 100
75 | COc1cn(Cc2cc(F)c(F)c(F)c2)c(Nc2cc(OCC(F)(F)F)ccc2C)nc1=O [Compound I-0932] | 10 to 100
76 | COc1cc(Nc2nc(=O)c(F)cn2Cc2cc(F)cc(F)c2)c(C)nc1F [Compound I-1118] | 100 to 500
77 | COCCn1ccc2c(C)c(Nc3nc(=O)c(F)cn3Cc3cc(F)cc(F)c3)ccc21 [Compound I-1229] | < 10
78 | COc1cn(Cc2ccc(F)c(Cl)c2)c(Nc2cc3c(cc2C)OC(F)(F)O3)nc1=O [Compound I-0727] | 100 to 500
79 | COc1cc(C)c(C)c(Nc2nc(=O)c(F)cn2Cc2cc(F)cc(F)c2)c1 [Compound I-1233] | < 10
